Earlier results as cited in patent US20130177646A1, “Solid Nicotine-Comprising Dosage Form with Reduced Organoleptic Disturbance” (priority 2012, published 2013).

Conditions: smoking a cigarette

CN1CCCC1c1cccnc1 (stereo not shown) [nicotine]
time for nicotine to reach the brain after inhalation: around ten
